# Results as given in US9096593B2, “Compounds and methods for kinase modulation, and indications therefor” (Plexxikon Inc., priority 2009, dated 2015).
# Like-named read-outs stand apart in the source and are kept apart here.
# Experiments:
# Fms kinase = Fms kinase (Homo sapiens (Human), UniProt P07333); assay: Fms kinase biochemical activity assay (AlphaScreen, biotin-(E4Y)10 phosphorylation); details: for IC50: read-out: Biochemical activity (IC50 μM) Fms
# Outline: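 Recombinant human Fms phosphorylating 30 nM biotin-(E4Y)10 with 100 μM ATP (1 ng/well enzyme) in Hepes pH 7.5 buffer with Mg2+/Mn2+, 5% DMSO, 20 min at 30 °C. Phosphotyrosine detected by AlphaScreen streptavidin donor/PY20 acceptor beads; IC50 from signal versus compound concentration.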
# BCR-FMS/BaF3 cells = BCR-FMS/BaF3 cells (Homo sapiens, UniProt P07333); assay: BCR-FMS/BaF3 cell proliferation assay (ATPlite); format: cell-based
# Chain of BCR-FMS/BaF3 cells (P07333 20-972 limits assumed, change not shown): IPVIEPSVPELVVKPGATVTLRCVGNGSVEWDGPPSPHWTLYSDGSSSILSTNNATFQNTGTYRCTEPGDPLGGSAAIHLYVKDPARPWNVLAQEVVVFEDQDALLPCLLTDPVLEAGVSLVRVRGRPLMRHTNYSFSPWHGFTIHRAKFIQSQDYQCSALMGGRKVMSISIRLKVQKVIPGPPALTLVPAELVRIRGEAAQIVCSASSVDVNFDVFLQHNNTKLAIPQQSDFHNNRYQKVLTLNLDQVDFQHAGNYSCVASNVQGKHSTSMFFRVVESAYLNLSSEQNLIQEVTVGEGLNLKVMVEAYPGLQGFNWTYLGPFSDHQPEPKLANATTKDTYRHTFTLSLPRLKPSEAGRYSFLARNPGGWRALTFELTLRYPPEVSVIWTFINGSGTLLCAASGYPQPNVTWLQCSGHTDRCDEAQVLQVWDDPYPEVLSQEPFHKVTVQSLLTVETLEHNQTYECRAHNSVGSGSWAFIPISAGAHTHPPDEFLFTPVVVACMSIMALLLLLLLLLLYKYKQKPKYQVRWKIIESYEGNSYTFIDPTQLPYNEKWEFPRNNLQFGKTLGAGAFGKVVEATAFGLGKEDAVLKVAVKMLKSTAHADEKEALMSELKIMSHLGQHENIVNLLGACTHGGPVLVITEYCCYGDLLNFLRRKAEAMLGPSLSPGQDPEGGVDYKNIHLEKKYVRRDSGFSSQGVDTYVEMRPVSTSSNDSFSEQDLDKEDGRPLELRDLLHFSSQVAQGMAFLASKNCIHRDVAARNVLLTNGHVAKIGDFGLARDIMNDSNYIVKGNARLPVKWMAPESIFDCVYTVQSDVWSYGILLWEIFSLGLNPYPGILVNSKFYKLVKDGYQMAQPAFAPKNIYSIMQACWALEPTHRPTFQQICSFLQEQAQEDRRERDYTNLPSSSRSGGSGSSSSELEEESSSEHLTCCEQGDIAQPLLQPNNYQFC
# Outline: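 Proliferation read by ATPlite luminescence after 3 days' exposure (37 °C, 5% CO2) to compound in 1:3 dilutions, eight points, maximum 10 μM final, DMSO control.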
# c-Kit kinase = c-Kit kinase (Homo sapiens (Human), UniProt P10721); assay: c-Kit kinase biochemical activity assay (AlphaScreen, biotin-(E4Y)10 phosphorylation)
# Chain of c-Kit kinase (P10721 26-976): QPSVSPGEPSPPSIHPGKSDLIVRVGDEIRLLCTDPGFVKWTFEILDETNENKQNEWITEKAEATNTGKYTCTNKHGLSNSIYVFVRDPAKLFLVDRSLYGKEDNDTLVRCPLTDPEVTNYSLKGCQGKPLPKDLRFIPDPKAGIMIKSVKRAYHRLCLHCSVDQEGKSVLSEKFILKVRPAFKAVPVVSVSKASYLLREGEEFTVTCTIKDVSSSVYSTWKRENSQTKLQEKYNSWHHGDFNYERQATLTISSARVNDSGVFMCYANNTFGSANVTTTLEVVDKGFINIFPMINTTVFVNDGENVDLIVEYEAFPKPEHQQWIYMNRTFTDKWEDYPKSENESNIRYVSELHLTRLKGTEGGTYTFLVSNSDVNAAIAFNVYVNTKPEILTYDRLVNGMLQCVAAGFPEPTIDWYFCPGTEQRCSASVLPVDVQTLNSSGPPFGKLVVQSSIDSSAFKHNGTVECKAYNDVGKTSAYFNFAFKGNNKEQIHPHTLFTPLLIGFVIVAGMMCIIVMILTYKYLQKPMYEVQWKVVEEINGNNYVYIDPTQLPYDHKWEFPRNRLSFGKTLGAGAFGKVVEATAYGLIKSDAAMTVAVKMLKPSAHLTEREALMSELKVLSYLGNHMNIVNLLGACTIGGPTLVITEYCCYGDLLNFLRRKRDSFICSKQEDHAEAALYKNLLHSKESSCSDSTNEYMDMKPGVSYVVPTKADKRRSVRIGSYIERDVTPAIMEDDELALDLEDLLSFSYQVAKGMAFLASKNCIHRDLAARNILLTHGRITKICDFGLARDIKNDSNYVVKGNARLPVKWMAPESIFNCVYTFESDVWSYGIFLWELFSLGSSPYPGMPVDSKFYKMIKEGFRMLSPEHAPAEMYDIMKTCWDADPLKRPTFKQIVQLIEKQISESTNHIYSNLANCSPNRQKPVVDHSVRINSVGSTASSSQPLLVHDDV
# [1] = Kit IC50/Fms IC50, BCR-KIT/BaF3 vs BCR-FMS/BaF3 cells
# [2] = read-out: BCR/BaF3 (IC50 μM) Fms; BCR-FMS/BaF3 cells
# Chain of Fms kinase (P07333 20-972): as the sequence (P07333 20-972 limits assumed, change not shown) above
IC50 (BCR-FMS/BaF3 cells; BCR-FMS/BaF3 cells; read-out: BCR/BaF3 (IC50 μM) Fms),SMILES,Biochemical activity selectivity (Kit IC50/Fms IC50) (Fms kinase),IC50 (Fms kinase),BCR/BaF3 selectivity (Kit IC50/Fms IC50) (BCR-FMS/BaF3 cells; [1]),IC50 (BCR-FMS/BaF3 cells; [2]),IC50 (c-Kit kinase)
,"Fc1cncc(CNc2ncc(Cc3c[nH]c4ncc(Cl)cc34)cn2)c1 [Compound P-2176, [5-(5-Chloro-1H-pyrrolo[2,3-b]pyridin-3-ylmethyl)-pyrimidin-2-yl]-(5-fluoro-pyridin-3-ylmethyl)-amine]",>20,< 0.1 µM,>20,< 0.1 µM,> 0.1 µM
,"CCS(=O)(=O)Nc1ccccc1CNc1ccc(Cc2c[nH]c3ncc(C)cc23)c(F)n1 [Compound P-2198, Ethanesulfonic acid (2-{[6-fluoro-5-(5-methyl-1H-pyrrolo[2,3-b]pyridin-3-ylmethyl)-pyridin-2-ylamino]-methyl}-phenyl)-amide]",<20,< 0.1 µM,<20,< 0.1 µM,> 0.1 µM
< 0.1 µM,"CCS(=O)(=O)Nc1cc(F)cc(CNc2ccc(Cc3c[nH]c4ncc(C)cc34)c(F)n2)c1 [Compound P-2202, Ethanesulfonic acid (3-fluoro-5-{[6-fluoro-5-(5-methyl-1H-pyrrolo[2,3-b]pyridin-3-ylmethyl)-pyridin-2-ylamino]-methyl}-phenyl)-amide]",<20,< 0.1 µM,<20,,> 0.1 µM
